Measured values reported in patent publication US10239870B2, “Dopamine D3 receptor antagonists” (priority 2014, dated 2019).

Target: hD2 recombinant receptor (human dopamine receptor type 2, long variant, CHO-Gα16-hD2L cells) (Homo sapiens (Human), UniProt P14416)
Conditions: functional pKi; antagonism of dopamine EC80 calcium response (FLIPR)

| D2 fpKi | SMILES |
| --- | --- |
| <5 | Cc1ncoc1-c1nnc(SCCCN2CCC[C@@]3(C[C@H]3c3ccc(C(F)(F)F)cc3)C2)n1C (single isomer, unassigned) [Example 314, (1S,3S or 1R,3R)-5-(3-{[4-methyl-5-(4-methyl-1,3-oxazol-5-yl)-4H-1,2,4-triazol-3-yl]sulfanyl}propyl)-1-[4-(trifluoromethyl)phenyl]-5-azaspiro[2.5]octane] |
| <5 | Cc1ncoc1-c1nnc(SCCCN2CC[C@]3(CC[C@H]3c3ccccc3)C2)n1C (single isomer, unassigned) [Example 318, (1R,4S or 1S,4R or 1S,4S or 1R,4R)-6-(3-{[4-methyl-5-(4-methyl-1,3-oxazol-5-yl)-4H-1,2,4-triazol-3-yl]sulfanyl}propyl)-1-phenyl-6-azaspiro[3.4]octane] |
